One experiment has as its target T1, Rac1 (Homo sapiens, UniProt P63000).
T1 construct: endogenous in cells; host or cells: MDA-MB-231
Description: Rac activation assay (PAK-PBD pulldown). Type of experiment: cell-based. To be noted: 250 nM, 24 hours, MDA-MB-231. The protocol:
MDA-MB-231 breast cancer cells were treated for 24 hours with 0 or 250 nM 4c. Cells were lysed and equal amounts of proteins were subjected to pull-down assays using the p21-binding domain of PAK to isolate GTP bound Rac. Top panel, pulldown showing GTP bound Rac1; middle panel, total Rac1 in lysates; bottom panel, actin as a loading control.
MDA-MB-231 triple negative breast cancer cells were seeded at equal density and treated with vehicle or Compound 4c for 24 hrs at various concentrations. Rac-GTP was detected using Rac Activity Assay, as per manufacturer's instructions (Cell Signaling). Briefly, total cell lysates were quantified and added equally to Pak-PBD beads. After 1 hr of incubation, beads were washed and Rac1-GTP (in pellets) or total Rac1 (in cell lysates) was detected by western blot using Rac1 antibody. (n=3 biological replicates).

The subject of experiment [1] is A549 lung adenocarcinoma cells. Nature of the experiment: EGF-induced membrane ruffles, F-actin staining. To be noted: 24 h. It counts as cell-based. The method, then: Cells were stimulated with EGF (200 ng/ml) for 5 min, and fixed and stained with Rhodamine Phalloidin for F-actin.
Cells were grown on glass coverslips and treated with vehicle or 4c for 24h. Lung cancer cells that were stimulated with epidermal growth factor (EGF) were serum starved prior to stimulation with 200 ng/ml EGF for 5 min. Following fixation in 4% formaldehyde, cells were stained for F-actin with Rhodamine phalloidin and visualized by fluorescence microscopy. 5 random fields were scored for the number of ruffles.

For experiment [2], the system named is MDA-MB-435. Description: Cell viability assay (MTT). It counts as cell-based, human. To be noted: Homo sapiens, MDA-MB-435. The protocol:
Cells plated at equal density were treated at 500 nM of compounds. After 72 hours, cell viability was measured by a MTT assay. n=3; * p<0.05, ** p<0.01, *** p<0.001.
(§1) Cells plated at equal density were treated at 250 nM of 4c at 250 nM.
(§2) Data from 3 biologic replicates each with 2 technical replicates. Four parameter dose-response curves generated using GraphPad Prism are shown.
[…]. GI50 was calculated using Graph pad Prism.
(§3) […] Using CellTiter 96 Non-Radioactive Cell Proliferation Assay (Promega, Corp.) according to manufactures' instructions, formazan was used as an indicator of viable cells at an absorbance 570 nm in a Tecan Microplate Reader M100. Data was calculated as fold change from vehicle and fitted using the 4′parameter logic nonlinear regression model in GraphPad Prism software. (n=3 biologic replicates: with 3 technical replicates each).
A range of compounds were tested by MTT assays for cell viability in MDA-MB-231 triple negative breast cancer (TNBC) cells and MDA-MB-435 HER2++ cancer cells. […].

For experiment [3], the system named is RAW264.7 macrophage cell line. Description: Wound healing assay. It counts as cell-based, murine. Conditions: Mus musculus, read-out: inhibition of wound closure, RAW264.7. The method, then:
Mircrographs were digitally acquired at 0, 12, and 24 hours and the area of the wound quantified relative to the distance at time 0. n=3.
Murine macrophage cell line, RAW264.7, plated at equal density were subjected to a scratch in the center and treated with 4c at 0, 150 nM, 250 nM, or 500 nM. Mircrographs were digitally acquired at 0, 12, and 24 hours and the area of the wound quantified relative to the distance at time 0. n=3.

The test system of another experiment is MCF-7. Nature of the experiment: Initial screening, SRB assay GI50. Type of experiment: cell-based. To be noted: Homo sapiens, MCF7, 48 hrs. The method, then:
(§4) For initial screening, the GIso of compounds 4a-4h in the cell lines MDA-MB-231, MDA-MB-435 and MCF-7 was determined via the SRB-assay for 48 hrs as follows:
(§5) A stock solution of compounds was prepared at 50 mM in 100% DMSO. For cells preparation, a flask of 75 cm^2 or 25 cm^2 were used for 2.6×10^5 cells/mL or 1.44×10^5 cells/mL, respectively, with an 80-90% of confluence. Cells were washed with PBS and trypsinized. The concentration of cells was determined using a 1:2 dilutions with Trypan Blue and a hemocytometer. After cell count, the concentration was adjusted to have a 7.0-10.0×10^4 cells/mL. Approximately 100 μL of cells suspension, compounds, control positive and control negative were added in triplicates to a 96 well plate. Positive control used was doxorubicin, and the negative control was DMSO 0.1%. All compounds (4a-h) at 50, 25, 12.5, 6.3, and 1.6 μM were incubated with cells at 37° C. for 48 hrs. For fixation, cold TCA 50% was used and incubated at 4° C. for 1 h. Wells were washed and dried prior to tincture with 100 μL of SRB 0.4%. To remove excess of SRB, acetic acid was used. For analysis, TRIS-BASE Solution (pH=10.5) was used and shaken prior to reading using an ELISA reader at 540 nm and the software SoftMax Pro 4.8. For each compound, 50% growth inhibition (GI50) was calculated from Sigmoidal dose-response curves (variable-slope) that were generated with data obtained from experiments carried out in triplicates (GI50 values were generated with GraphPad Prism V. 6.02, GraphPad Software, Inc.).
A general note: Sulforhodamine B stains cellular protein and so reports cell mass.

For experiment [4], the system named is MDA-MB-231. Nature of the experiment: Initial screening, SRB assay GI50. Type of experiment: cell-based. Conditions: Homo sapiens, 48 hrs. The protocol:
as §4, §5

Experiment [5] has as its system MDA-MB-435. Nature of the experiment: Initial screening, SRB assay GI50. It counts as cell-based. To be noted: Homo sapiens, 48 hrs, read-out: MDA-MB435 GI50. The method, then: as §4, §5
Experiment [6] deals with MDA-MB-231. Nature of the experiment: Cell viability assay (MTT). It counts as cell-based. To be noted: Homo sapiens, MDA-MB-231. The method, then: Cells plated at equal density were treated at 500 nM of compounds. […]
as §1, §2
Cell viability relative to vehicle (100%) is shown.
as §3
A range of compounds were tested by MTT assays for cell viability in MDA-MB-231 triple negative breast cancer (TNBC) cells and MDA-MB-435 HER2++ cancer cells.

A value given as a limit tells only on which side of the number the result lay.

Consider `CCn1c2ccccc2c2cc(-n3nnc(C(O)c4cccc(OC)c4)c3-c3ccccc3)ccc21` (stereo not drawn) [Compound 4c, (1-(9-ethyl-9H-carbazol-3-yl)-5-phenyl-1H-1,2,3-triazol-4-yl) (3-methoxyphenyl) methanol], for which, at Rac1, the “reduction of Rac1 activation by GTP loading” value came out at 85%. Also, the “reduction of membrane ruffles in response to EGF” value is 20% in experiment [1] (250 nM), around 38% in experiment [1] (500 nM) and 58% in experiment [1] (1000 nM). Besides, the inhibition – broadly, how much of the control response was suppressed – at […] is around 60% with MDA-MB-435 [2] (250 nM (FIG. 1C), read-out: inhibition of MDA-MB-435 cells) and 80% in experiment [3] (250 nM). The cytotoxicity at 0.5 µM in the experiment with MDA-MB-435 [2] (500 nM, 72 hours, read-out: decrease in cell viability, MDA-MB-435) is around 80%; with MDA-MB-231 [6] (500 nM, 72 hours, read-out: inhibition of MDA-MB-231 cell viability) it was below 50%. Moreover, the GI50 (commonly the concentration giving 50% growth inhibition) was 261 nM in the experiment with MDA-MB-435 [2] (120 hours, 0-1000 nM, read-out: GI50, MDA-MB-435); 3200 nM in the experiment on MCF-7; 17200 nM with MDA-MB-231 [4]; 1600 nM in the experiment with MDA-MB-435 [5]; around 300 nM with MDA-MB-231 [6] (summary over breast cancer cell lines, read-out: GI50 for breast cancer cell viability inhibition). Also, the inhibition at 0.15 µM in experiment [3] (150 nM) stood at 50%. Also, the inhibition at 0.5 µM in experiment [3] (500 nM) was 90%.
